# Results taken from patent publication US20090136470A1, “REGULATORY T CELLS AND METHODS OF MAKING AND USING SAME” (priority 2007, published 2009).
# Where two headings read alike, the source gives them in different places.
# How the values were obtained:
# [1] = tested on: CD4^+CD25^− spleen T cells; experiment: Th-17 differentiation of CD4 T cells stimulated with dendritic cells or spleen APCs plus TGF-β and IL-6 (intracellular IL-17 staining, IL-17 ELISA); type: cell-based, mouse
# Protocol: (§1) For CD4^+CD25^− T cell isolation, spleens were removed, teased into cell-single suspensions and filtered through a 70 μm cell strainer (Fisher Scientific, USA). CD4^+CD25^−T cells were isolated by negative selection after incubation with a mix of specific biotin-conjugated mAbs (anti-CD8, CD11b, CD11ε, CD25, CD45R (B220), NK1.1, and TER119) at 1/200 dilution, and anti-biotin magnetic microbeads (25-40 μl per spleen) (Miltenyi Biotec, USA).
# (§2) For dendritic cells isolation, spleen and MLN were chopped and digested by collagenase type D (Roche, USA) for 30 min at room temperature. Digested tissues were treated with 5 mM of EDTA for additional 5 min and mashed through a 70 μm cell strainer. Subsequently, CD11c^+ cells were enriched by positive selection using anti-CD11c microbeads according to the manufacturer's protocol (Miltenyi Biotec, USA). Enriched populations were stained with CD45-APC, CD 11c-PE, I-A^b-FITC and TCR β and sorted for TCRβ^−CD45^+CD11c^+I-Ab^+ by flow cytometry using a FACS-DIVA cell sorter (USA).
# (§3) The culture medium used for dendritic cell-T cell cultures was Iscove's modified Dulbecco medium (IMDM) (Gibco, USA) supplemented with 10% heat-inactivated FCS, 2 mM L-glutamine, 100 U/ml penicillin, 100 μg/ml streptomycin, and 5 mM β-mercaptoethanol (all Sigma, USA). […] For dendritic cell-T cell cultures, 2×10^4 dendritic cells and 1×10^5 T cells were cultured in a volume of 200 μl (96-well plates). For irradiated APC-T cell cultures, 5×10^5 APCs and 1×10^5 T cells were cultured in a volume of 200 μl in 96-well plates (2×10^6 APCs and 0.5×10^6 T cells per well in 48-well plates). […] For the study shown in FIG. 4A, after sorting of naive CD4^+ cells (CD25^−CD44^lowCD62L^+), cells were washed twice in PBS+0.1% BSA, counted and labeled with 2 μM of CFSE (Carboxyfluorescein diacetate, succinimidyl ester) (Molecular Probes, USA) at a concentration of 5−10×10^6 cells per ml in PBS-0.1% BSA.
# To block non-specific staining, the 2.4G2 anti-CD16/32 antibody was added.
# [2] = tested on: CD4 cells cultured with MLN DCs (MDC) or splenic DCs (SDC); experiment: Retinal (RAL): TGF-β mediated Foxp3 induction (Treg differentiation) in DC/T cell co-cultures; type: cell-based
# CD4^+CD25^−T cells [3] = experiment: TGF-β-dependent Foxp3 induction (Treg differentiation) in CD4 T cells with dendritic cells or APCs; type: cell-based, mouse; settings: OT-II CD4 cells, OVAp, TGF-β1; LE135 1 μM, RA 100 nM
# Protocol: as §1, §2, §3
# For Foxp3 staining, no stimulation with PMA/Ionomycin was performed, with the exceptions of FIGS. 8B and 9A. […]
# [4] = tested on: CD4^+T cells from small intestine lamina propria and spleen; experiment: Oral Listeria monocytogenes infection (and naïve mice) treated with RA or LE540: IL-17^+ and Foxp3^+ CD4 T cells; type: in vivo, mouse
# Source text: Listeria monocytogenes (strain WT LMOVA) was used. Mice were orally infected (gavage) with 5×10^8 CFU of L. monocytogenes. Mice received i.p. injections of vehicle, RA or LE540 on the same day and 2 days after infection. Mice were sacrificed 5 days post-infection for analysis.
# Every second day, in a interval of two weeks, naïve mice received gavage of either vehicle, RA or LE540.
# Liver lymphocytes were isolated using 37.5% isotonic Percoll (GE Healthcare, USA), as previously described [Y. Kinjo et al, Nat Immunol 7, 978 (2006)]. Intestinal lymphocytes were isolated and prepared as previously described [Aranda et al., J Immunol 158, 3464 (1997)]. Briefly, small and large intestines were removed and placed in chilled HBSS media containing 5% FCS. The intestines were carefully cleaned from the mesentery and flushed of fecal content. Intestines were opened longitudinally and then cut into 1 cm pieces. The intestinal tissue was transferred to a 250-ml Erlenmeyer flasks containing 25 ml of preheated HBSS complemented with 2% FCS and 1 mM DTT (Sigma, USA) and shaken at 200 rpm for 40 min at 37° C. The tissue suspension was passed through a stainless steel sieve into 50-ml conical tubes and the cells were pelleted by centrifugation at 1200 rpm for 10 min at 4° C. The cell pellet was resuspended in complete HBSS, layered over a discontinuous 40/70% Percoll gradient, and centrifuged at 2000 rpm for 30 min. Cells from the 40/70% interface were collected, washed and resuspended in complete RPMI media. These purified cells constituted the intraepithelial lymphocyte (IEL) population. To isolate the lamina propria lymphocytes (LPL), the remaining intestinal tissue in the stainless steel sieve was minced and transferred to conical tubes. The minced pieces were resuspended in 20 ml of complete RPMI containing 1 mg/ml of collagenase (Sigma, USA) and shaken at 200 rpm for 40 min at 37° C. The tissue suspension was collected and passed through a 70 μm cell strainer and the cells were pelleted by centrifugation at 1200 rpm. The cells were then resuspended and layered onto a 40/70% Percoll gradient, centrifugated and processed as described above for the IEL preparation.
# (§4) To block non-specific staining, the 2.4G2 anti-CD16/32 antibody was added. […] For intracellular cytokine staining, cells obtained from in vitro cultures or isolated IELs were incubated for 4-5 hours with 50 ng/ml PMA, 750 ng/ml Ionomycin (both Sigma, USA) and 10 μg/ml Brefeldin A (Invitrogen, USA) in a tissue culture incubator at 37° C.
# For Foxp3 staining, no stimulation with PMA/Ionomycin was performed, with the exceptions of FIGS. 8B and 9A. In these cases, the time of incubation with PMA/Ion was reduced to 3.5 hours. Intracellular Foxp3 staining was performed as per the eBioscience's Foxp3-staining kit protocol.
# RXR = settings: cited from earlier work
# RAR = settings: cited from earlier work
# PPAR-γ = biological target: T1, PPAR-γ (Homo sapiens, UniProt P37231); settings: cited from earlier work
# T1 sequence (P37231 1-505): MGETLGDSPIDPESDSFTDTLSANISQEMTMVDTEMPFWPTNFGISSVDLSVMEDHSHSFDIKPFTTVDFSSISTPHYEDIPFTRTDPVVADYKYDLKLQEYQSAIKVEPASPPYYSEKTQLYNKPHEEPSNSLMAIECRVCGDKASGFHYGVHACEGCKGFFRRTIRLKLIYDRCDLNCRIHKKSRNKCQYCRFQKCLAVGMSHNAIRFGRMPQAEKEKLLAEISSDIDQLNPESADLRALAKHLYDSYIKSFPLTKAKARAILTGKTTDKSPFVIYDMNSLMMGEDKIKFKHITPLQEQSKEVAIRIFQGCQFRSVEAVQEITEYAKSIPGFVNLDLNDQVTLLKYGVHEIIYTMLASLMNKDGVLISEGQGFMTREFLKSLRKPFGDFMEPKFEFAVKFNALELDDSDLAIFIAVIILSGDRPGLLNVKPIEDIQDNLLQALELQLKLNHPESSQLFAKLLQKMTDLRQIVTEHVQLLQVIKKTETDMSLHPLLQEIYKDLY
# [5] = tested on: retinoic-acid orphan receptor RORg-t; experiment: Retinal (RAL): RORg-t in APC-free system; type: cell-based
# [6] = tested on: CD4 cells cultured with either MLN DCs (MDC) or splenic DCs (SDC); experiment: Retinal (RAL): TH-17 differentiation and IL-17 production in DC/T cell co-cultures; type: cell-based
# CD4^+CD25^−T cells [7] = experiment: CTLA-4, CD103, CCR9 and CD25 staining of CD4 T cells stimulated with spleen APCs plus TGF-β1 and/or RA; type: cell-based, mouse; settings: TGF-β1 added to RA
# Protocol: as §1
# APCs were isolated from spleen of C57BL/6 mice by negative selection using CD90.2 (Thy1.2) magnetic microbeads to deplete T cells (Miltenyi Biotec).
# as §3, §4
compound,measurement,setting,value
"CC1=C(/C=C/C(C)=C\C=C\C(C)=C\C(=O)O)C(C)(C)CCC1 [9-cis RA, 9-cis retinoic acid]",Th-17 differentiation by spleen dendritic cells,"[1]; added to cultures with TGF-β and IL-6, 100 nM",also inhibited the Th-17 differentiation by spleen dendritic cells
CN1c2cc3c(cc2N=C(c2ccc(C(=O)O)cc2)c2ccccc21)C(C)(C)CCC3(C)C [LE135],relative inefficiency of MLN dendritic cells to mediate Th-17 differentiation,"[1]; RAR antagonist included during activation under Th-17 conditions, 1 μM",reversed
same,effect of RAR antagonist on RAL-increased Foxp3 induction,[2]; LE135 added with RAL,reversed Foxp3 induction
same,TGF-β-dependent Foxp3 induction by MLN dendritic cells,CD4^+CD25^−T cells [3],reduced
CN1c2cc3c(cc2N=C(c2ccc(C(=O)O)cc2)c2ccc4ccccc4c21)C(C)(C)CCC3(C)C [LE540],"Th-17 mucosal T cells (IL-17 staining of CD4^+T cells, small intestine lamina propria)","[4]; 5 days after oral L. monocytogenes infection, i.p. days 0 and 2, RA 300 μg/mouse, LE540 100 μg/mouse",no apparent difference compared to the controls
same,differentiation / number of mucosal Foxp3^+Treg cells (small intestine lamina propria),"[4]; Lm challenged mice, 5 days after oral infection",significantly reduce
same,spleen Foxp3^+CD4 cells,[4]; Lm infected mice (2 i.p. injections) and naïve mice (2-week gavage),No effect
"CC1=C(/C=C/C(C)=C/C=C/C(C)=C/C=O)C(C)(C)CCC1 [RAL, retinal]",binding to RXR,RXR,shown to bind
same,binding to RAR,RAR,does not bind
same,binding to PPAR-γ,PPAR-γ,shown to bind
same,TGF-β mediated Foxp3 induction / Treg differentiation,[2],enhance TGF-β mediated Foxp3 induction
same,"increased induction of Foxp3, MDC versus SDC cultures",[2]; DC/T cell co-cultures,observed mainly in MDC cultures
same,TGF-β mediated Foxp3 induction / Treg differentiation,[2]; listed as retinal,enhances Treg differentiation
same,RORg-t,[5],inhibited
same,TH-17 differentiation,[6],able to inhibit TH-17 differentiation
same,IL-17 production from CD4 cells,[6]; cultured with either MLN DCs (MDC) or splenic DCs (SDC),suppresses IL-17 production
same,TH-17 differentiation,[6]; listed as retinal,suppressor of TH-17 differentiation
CC(C)=CCCC(C)=CC=O [citral],effect of RALDH inhibition on RAL effects on TH-17 differentiation,[6]; citral added with RAL,does not reverse RAL effects
"TGF-β: cytokine, transforming growth factor-beta, exogenous, 5 ng/ml (R&D Systems)",RA-induced CCR9 expression,CD4^+CD25^−T cells [7],partially antagonized
